# Test results taken from article PMC7114241 (Antiviral Research, 2011).
# Target: SARS-CoV M^pro (Severe acute respiratory syndrome coronavirus, UniProt P0C6X7)
# Assay type: biochemical
substance,measurement,setting,value
Dabcyl-KTSAVLQ↓SGFRKME-Edans amide,apparent k cat/K m,,2359 M^−1·19 s^−1
same,k cat/K m,,7863 M⁻¹ s⁻¹
same,K m,pH 7.3,24.5 µM
